Experimental data reported in patent US20090270459A1, “Flea control agent containing N-Substituted indole derivative” (priority 2001, published 2009).

What was measured:
adult cat fleas = assay: Effect on cat flea (1): glass tube residue contact test, knock-down and mortality; format: in vivo, cat flea (Ctenocephalides felis); set-up: After 3 hours (KD) knocking-down rate: unit not given here
Protocol: Each compound was dissolved in acetone to a predetermined concentration and 0.1 ml of the resulting solution was dropped into the bottom of a glass tube with a diameter of 2.8 cm and a height of 12 cm and air-dried. After the air-drying, 10 adult cat fleas were placed in the glass tube and the glass tube was closed with nylon mesh and allowed to stand under conditions of a room temperature of 26° C. and a humidity of 80%. The knocked-down (KD) fleas after 3 hours and the dead and alive after 24 hours and 48 hours were counted, and the knocking-down rate and the mortality were calculated. Fipronil was used as a positive control. In a control experiment, no treatment with an agent was carried out.

std:ddy strain male mice = assay: Toxicity to mouse, administration into the stomach; format: in vivo
Protocol: The compound listed in Table 1 or Fipronil was dissolved in olive oil to a predetermined concentration, and the resulting solution was directly administered into the stomachs of std:ddy strain male mice by the use of a probe. The dose was 30 mg/kg or 100 mg/kg. Whether the mice were alive or dead was observed 3 hours, 1 day, 7 days and 14 days after the administration.

[1] = system: cat fleas parasitic on a cat; assay: Effect on cat flea (2): spot-on of 10% liquid drops on flea-infested cat, cumulative fall rate; format: in vivo, cat flea (Ctenocephalides felis) on cat; details: for Cumulative fall rate (%) After 2 hours: cat with 30 cat fleas
Protocol: Fleas that had fallen from the cat body were counted at intervals of 2 hours until 8 hours after the dropping of the solution, and the cumulative fall rate was calculated. In addition, fleas that had fallen in 24 hours were counted and the cumulative fall rate after 1 day was calculated. Two days after the dropping, the living fleas on the cat body were counted by the use of a flea-removing comb.

[2] = system: adult cat fleas made parasitic on the cat body; assay: Effect on cat flea (3): residual effect after spot-on of 10% liquid drops on cat, re-infestation; format: in vivo, cat flea (Ctenocephalides felis) on cat; details: for Number of living fleas on the second day after inoculation: 30 fleas inoculated
Source text: After the dropping, 30 adult cat fleas were made parasitic on the cat body after a predetermined number of weeks. On the second day after this inoculation with the parasites, the living fleas on the cat body were counted by the use of a flea-removing comb.

cat = assay: Toxicity to cat, spot-on dropping of liquid drops; details: for Clinical symptom: 0.5 ml spot-on, cat, listed as No. 17
Source text: After the dropping, the clinical symptom of the cat was observed.

[3] = 1 mg/tube, 10 adult cat fleas, 26° C., humidity 80%
[4] = 30 mg/kg into the stomach, in olive oil, male mice

## Cc1c(SC(F)(Cl)Cl)c2ccccc2n1-c1ncc(C(F)(F)F)cc1Cl [Compound 14, 1-(3-chloro-5-trifluoromethylpyridin-2-yl)-3-(dichlorofluoromethylthio)-2-methylindole]
Adult cat fleas; 0.001 mg/tube
  After 3 hours (KD) knocking-down rate: 0
  After 1 day (mortality): 20%
  After 2 days (mortality): 30%
Adult cat fleas; 0.01 mg/tube
  After 3 hours (KD) knocking-down rate: 0
  After 1 day (mortality): 50%
  After 2 days (mortality): 100%
Adult cat fleas; 0.1 mg/tube
  After 3 hours (KD) knocking-down rate: 0
  After 1 day (mortality): 100%
  After 2 days (mortality): 100%
Adult cat fleas; 1 mg/tube
  After 1 day (mortality): 100%
  After 2 days (mortality): 100%
Adult cat fleas; [3]
  After 3 hours (KD) knocking-down rate: 0
std:ddy strain male mice; 30 mg/kg
  Cumulative mortality After 1 day: 0/5
  Cumulative mortality After 7 days: 0/5
  Cumulative mortality After 14 days: 0/5
std:ddy strain male mice; [4]
  Cumulative mortality After 3 hours: 0/5
std:ddy strain male mice; 100 mg/kg
  Cumulative mortality After 3 hours: 0/5
  Cumulative mortality After 1 day: 0/5
  Cumulative mortality After 7 days: 0/5
  Cumulative mortality After 14 days: 0/5

## Fc1ccc2c(c1)c(SC(F)(Cl)Cl)cn2-c1ncc(C(F)(F)F)cc1Cl [Compound 2, 1-(3-chloro-5-trifluoromethylpyridin-2-yl)-3-(dichlorofluoromethylthio)-5-fluoroindole]
Adult cat fleas; 0.001 mg/tube
  After 3 hours (KD) knocking-down rate: 0
  After 1 day (mortality): 0%
  After 2 days (mortality): 0%
Adult cat fleas; 0.01 mg/tube
  After 3 hours (KD) knocking-down rate: 0
  After 1 day (mortality): 10%
  After 2 days (mortality): 50%
Adult cat fleas; 0.1 mg/tube
  After 3 hours (KD) knocking-down rate: 0
  After 1 day (mortality): 100%
  After 2 days (mortality): 100%
Adult cat fleas; 1 mg/tube
  After 1 day (mortality): 100%
  After 2 days (mortality): 100%
Adult cat fleas; [3]
  After 3 hours (KD) knocking-down rate: 0

## FC(Cl)(Cl)Sc1cn(-c2ncc(C(F)(F)F)cc2Cl)c2ccccc12 [Compound 1, 1-(3-chloro-5-trifluoromethylpyridin-2-yl)-3-(dichlorofluoromethyl-thio)indole]
Adult cat fleas; 0.001 mg/tube
  After 3 hours (KD) knocking-down rate: 0
  After 1 day (mortality): 10%
  After 2 days (mortality): 40%
Adult cat fleas; 0.01 mg/tube
  After 3 hours (KD) knocking-down rate: 0
  After 1 day (mortality): 70%
  After 2 days (mortality): 100%
Adult cat fleas; 0.1 mg/tube
  After 3 hours (KD) knocking-down rate: 0
  After 1 day (mortality): 100%
  After 2 days (mortality): 100%
Adult cat fleas; 1 mg/tube
  After 1 day (mortality): 100%
  After 2 days (mortality): 100%
Adult cat fleas; [3]
  After 3 hours (KD) knocking-down rate: 80

## FC(Cl)(Cl)Sc1cn(-c2c(Cl)cc(C(F)(F)F)cc2Cl)c2ccccc12 [Compound 17, 1-(2,6-dichloro-4-trifluoromethylphenyl)-3-(dichlorofluoromethylthio)indole]
Adult cat fleas; 0.001 mg/tube
  After 3 hours (KD) knocking-down rate: 0
  After 1 day (mortality): 10%
  After 2 days (mortality): 40%
Adult cat fleas; 0.01 mg/tube
  After 3 hours (KD) knocking-down rate: 0
  After 1 day (mortality): 70%
  After 2 days (mortality): 100%
Adult cat fleas; 0.1 mg/tube
  After 3 hours (KD) knocking-down rate: 0
  After 1 day (mortality): 100%
  After 2 days (mortality): 100%
Adult cat fleas; 1 mg/tube
  After 1 day (mortality): 100%
  After 2 days (mortality): 100%
Adult cat fleas; [3]
  After 3 hours (KD) knocking-down rate: 50
[1]; 0.5 ml of 10% solution spot-on
  Fate of the fleas that had fallen from the cat body: died within several hours
  Cumulative fall rate (%) After 4 hours: 15%
  Cumulative fall rate (%) After 6 hours: 37%
  Cumulative fall rate (%) After 8 hours: 47%
  Cumulative fall rate (%) After 24 hours: 100%
  Cumulative fall rate (%) After 2 hours: 0%
[2]; 0.5 ml of 10% solution spot-on, cat
  Duration of the aftereffect: about 6 weeks
[2]; 1 week after administration, 0.5 ml of 10% solution
  Number of living fleas on the second day after inoculation: 0
[2]; 2 weeks after administration
  Number of living fleas on the second day after inoculation: 0
[2]; 4 weeks after administration
  Number of living fleas on the second day after inoculation: 0
[2]; 6 weeks after administration
  Number of living fleas on the second day after inoculation: 6
[2]; 6 weeks after administration, listed as No. 17
  Number of living fleas on the second day after inoculation: six
[2]; 8 weeks after administration
  Number of living fleas on the second day after inoculation: 13
[2]; 8 weeks after administration, listed as No. 17
  Number of living fleas on the second day after inoculation: thirteen
[2]; until 4 weeks after the dropping
  Killing of the fleas until 4 weeks after the dropping: completely killed the fleas
std:ddy strain male mice; 30 mg/kg
  Cumulative mortality After 1 day: 0/5
  Cumulative mortality After 7 days: 0/5
  Cumulative mortality After 14 days: 0/5
std:ddy strain male mice; [4]
  Cumulative mortality After 3 hours: 0/5
std:ddy strain male mice; 100 mg/kg
  Cumulative mortality After 3 hours: 0/5
  Cumulative mortality After 1 day: 0/5
  Cumulative mortality After 7 days: 0/5
  Cumulative mortality After 14 days: 0/5
cat; 10, 20 or 30% liquid drops spot-on
  Toxicity to cat: only low toxicity
cat; dropping concentration 10%
  Clinical symptom: no abnormal sign
cat; dropping concentration 20%
  Clinical symptom: no abnormal sign
cat; dropping concentration 30%
  Clinical symptom: no abnormal sign

## FC(Cl)(Cl)Sc1cn(-c2ncc(C(F)(F)F)cc2Cl)c2ccc(Cl)cc12 [Compound 3]
Adult cat fleas; 0.001 mg/tube
  After 3 hours (KD) knocking-down rate: 0
  After 1 day (mortality): 20%
  After 2 days (mortality): 20%
Adult cat fleas; 0.01 mg/tube
  After 3 hours (KD) knocking-down rate: 0
  After 1 day (mortality): 10%
  After 2 days (mortality): 20%
Adult cat fleas; 0.1 mg/tube
  After 3 hours (KD) knocking-down rate: 0
  After 1 day (mortality): 40%
  After 2 days (mortality): 70%
Adult cat fleas; 1 mg/tube
  After 1 day (mortality): 50%
  After 2 days (mortality): 90%
Adult cat fleas; [3]
  After 3 hours (KD) knocking-down rate: 0

## O=S(=O)(c1cn(-c2c(Cl)cc(C(F)(F)F)cc2Cl)c2ccccc12)C(F)(Cl)Cl [Compound 32]
Adult cat fleas; 0.001 mg/tube
  After 3 hours (KD) knocking-down rate: 0
  After 1 day (mortality): 0%
  After 2 days (mortality): 0%
Adult cat fleas; 0.01 mg/tube
  After 3 hours (KD) knocking-down rate: 0
  After 1 day (mortality): 0%
  After 2 days (mortality): 20%
Adult cat fleas; 0.1 mg/tube
  After 3 hours (KD) knocking-down rate: 0
  After 1 day (mortality): 30%
  After 2 days (mortality): 100%
Adult cat fleas; 1 mg/tube
  After 1 day (mortality): 100%
  After 2 days (mortality): 100%
Adult cat fleas; [3]
  After 3 hours (KD) knocking-down rate: 0

## FC(Cl)(Cl)Sc1cn(-c2c(Cl)cc(C(F)(F)F)cc2Cl)c2ccc(Cl)cc12 [Compound 19]
Adult cat fleas; 0.01 mg/tube
  After 3 hours (KD) knocking-down rate: 0
  After 1 day (mortality): 30%
  After 2 days (mortality): 90%
Adult cat fleas; 0.1 mg/tube
  After 3 hours (KD) knocking-down rate: 0
  After 1 day (mortality): 60%
  After 2 days (mortality): 100%
Adult cat fleas; 1 mg/tube
  After 1 day (mortality): 100%
  After 2 days (mortality): 100%
Adult cat fleas; [3]
  After 3 hours (KD) knocking-down rate: 0

## N#Cc1nn(-c2c(Cl)cc(C(F)(F)F)cc2Cl)c(N)c1[S+]([O-])C(F)(F)F (stereo not drawn) [Fipronil, 5-amino-1-(2,6-dichloro-4-(trifluoromethyl)phenyl)-4-((trifluoromethyl)sulfinyl)-1H-pyrazole-3-carbonitrile, reference compound]
Adult cat fleas; 0.001 mg/tube
  After 3 hours (KD) knocking-down rate: 0
  After 1 day (mortality): 20%
  After 2 days (mortality): 20%
Adult cat fleas; 0.01 mg/tube
  After 3 hours (KD) knocking-down rate: 0
  After 1 day (mortality): 20%
  After 2 days (mortality): 90%
Adult cat fleas; 0.1 mg/tube
  After 3 hours (KD) knocking-down rate: 0
  After 1 day (mortality): 100%
  After 2 days (mortality): 100%
Adult cat fleas; 1 mg/tube
  After 1 day (mortality): 100%
  After 2 days (mortality): 100%
Adult cat fleas; [3]
  After 3 hours (KD) knocking-down rate: 0
[1]; 0.5 ml of 10% solution spot-on
  Cumulative fall rate (%) After 4 hours: 3%
  Cumulative fall rate (%) After 6 hours: 20%
  Cumulative fall rate (%) After 8 hours: 27%
  Cumulative fall rate (%) After 24 hours: 90%
  Cumulative fall rate (%) After 2 hours: 0%
[1]; 24 hours after the dropping, 0.5 ml of 10% solution
  Dead fleas found on the body of the cat: three
std:ddy strain male mice; 30 mg/kg
  Cumulative mortality After 1 day: 1/5
  Cumulative mortality After 7 days: 1/5
  Cumulative mortality After 14 days: 1/5
std:ddy strain male mice; [4]
  Cumulative mortality After 3 hours: 0/5
std:ddy strain male mice; 100 mg/kg
  Cumulative mortality After 3 hours: 1/5
  Cumulative mortality After 1 day: 5/5
  Cumulative mortality After 7 days: 5/5
  Cumulative mortality After 14 days: 5/5

## FC(F)(F)Sc1cn(-c2c(Cl)cc(C(F)(F)F)cc2Cl)c2ccccc12 [Compound 25, 1-(2,6-dichloro-4-trifluoromethylphenyl)-3-(trifluoromethylthio)indole]
Adult cat fleas; 0.001 mg/tube
  After 3 hours (KD) knocking-down rate: 0
  After 1 day (mortality): 0%
  After 2 days (mortality): 30%
Adult cat fleas; 0.01 mg/tube
  After 3 hours (KD) knocking-down rate: 0
  After 1 day (mortality): 70%
  After 2 days (mortality): 100%
Adult cat fleas; 0.1 mg/tube
  After 3 hours (KD) knocking-down rate: 10
  After 1 day (mortality): 100%
  After 2 days (mortality): 100%
Adult cat fleas; 1 mg/tube
  After 1 day (mortality): 90%
  After 2 days (mortality): 100%
Adult cat fleas; [3]
  After 3 hours (KD) knocking-down rate: 100
std:ddy strain male mice; 30 mg/kg
  Cumulative mortality After 1 day: 0/5
  Cumulative mortality After 7 days: 0/5
  Cumulative mortality After 14 days: 0/5
std:ddy strain male mice; [4]
  Cumulative mortality After 3 hours: 0/5
std:ddy strain male mice; 100 mg/kg
  Cumulative mortality After 3 hours: 0/5
  Cumulative mortality After 1 day: 0/5
  Cumulative mortality After 7 days: 0/5
  Cumulative mortality After 14 days: 0/5
